This test deals with YB-1 and MDR1 expression. Description: Immunohistochemistry of ID8 tumor xenograft samples. Particulars: SU056 20 mg/kg. It counts as in vivo, mice. The method, then:
Out of six targets identified, we selected proteins whose thermal shift is above 5° in the presence of SU056 for further study of protein expression after treatment. […] To study the in vivo effects of SU056 treatment, we analyzed ID8 tumor xenograft samples via immunohistochemistry (IHC). […] To identify the broader effects of SU056 on YB-1 and its downstream protein/activity in different ovarian cancer cell lines, we selected six different cell lines and treated them with SU056 (2.5 μM) for 12 h. Cells were analyzed for YB-1 and CD44 expression and Multidrug resistance 1 (MDR1, ABC pump mediated efflux). […] Finally, we tested the time kinetics and dose-dependent effects of SU056 on YB-1 expression. OVCAR4, OVCAR8, and SKOV3 cells were treated with SU056 (1, 2.5, and 5 μM) for 3, 6, 12, and 24 h and YB-1 expression was measured using YB-1 ELISA. […] 5 μM treatment for 24 h inhibited YB-1 completely (100%) in all three OC cells (FIG. 4E).
Immunohistochemistry: Fixed tumors and organs were embedded in paraffin. Each block was cut in 5 μm sections and fixed on poly-L lysine-coated slides. […]
FIGS. 4A-4E: SU056 inhibits YB-1. […] FIG. 4C) Respective OC cells were treated with 2.5 μM SU056 for 12 h and YB-1 & CD44 expression and multidrug resistance activity was measured as described in the ‘method’ section. The % inhibition was calculated and compared to the control for the respective cell line. […]

`O=C1OCC2=C1C(c1cccc(F)c1)c1cc3c(cc1N2CCO)OCO3` (stereo not shown) [SU056, 9-(3-fluorophenyl)-5-(2-hydroxyethyl)-6,9-dihydro-[1,3]dioxolo[4,5-g]furo[3,4-b]quinolin-8(5H)-one]: the “YB-1 and MDR1 expression in tumors (IHC)” value was “strongly inhibits YB-1 expression followed by downregulation of downstream MDR1”.

(Values after patent US20240016784A1, “Y BOX BINDING PROTEIN 1 INHIBITORS” (Oregon Health & Science University, priority 2020, published 2024).)
